Data taken from patent US11623924B2, “Modulators of alpha-1 antitrypsin” (Vertex Pharmaceuticals Incorporated, priority 2018, dated 2023).

Target: T1, NL20 human bronchial epithelial cells expressing human Z-AAT (Homo sapiens, UniProt P01009, E366K)
T1 construct: expressed in transfected cells; host or cells: NL20 human bronchial epithelial cells (NL20-SI line, doxycycline added)
Assay: AAT Function Assay (MSD Assay NL20-SI Cell Line)
Assay type: cell-based
Settings: functionally active AAT (AAT-hNE complex) in supernatant of NL20 cells expressing human Z-AAT; read-out: NL20 Func. (EC50)
Method: A. AAT Function Assay (MSD Assay NL20-SI Cell Line)
Alpha-1 antitrypsin (AAT) is a SERPIN (serine protease inhibitor) that inactivates enzymes by binding to them covalently. This assay measured the amount of functionally active AAT in a sample in the presence of the disclosed compounds 1-215 by determining the ability of AAT to form an irreversible complex with human neutrophil Elastase (hNE). In practice, the sample (cell supernatant, blood sample, or other) was incubated with excess hNE to allow AAT-Elastase complex to be formed with all functional AAT in the sample. This complex was then captured to a microplate coated with an anti-AAT antibody. The complex captured to the plate was detected with a labeled anti-Elastase antibody and quantitated using a set of AAT standards spanning the concentration range present in the sample. Meso Scale Discovery (MSD) plate reader, Sulfo-tag labeling, and microplates were used to provide high sensitivity and wide dynamic range.
• 1. Harvest NL20 human bronchial epithelial cells expressing human Z-AAT in OptiMEM™ containing Pen/Strep (P/S) • 2. Seed at 16,000 cells/well in 30 μL (384 well plate) • 3. Centrifuge plates briefly up to speed (1200 rpm) and place into 37° C. incubator overnight Day 2: Compound Addition and Coating Plates with Capture Antibody Compound Addition: • 1. Dispense 40 μL of OptiMEM™ (P/S) with doxycycline (1:1000 stock=0.1 μM final) to each well of the compound plate using a multidrop Combi in hood • 2. Remove cell plate from incubator, flip/blot and take immediately to Bravo to transfer compounds • 3. Return plates to incubator overnight Coat MSD Plates • 1. Dilute capture antibody (Polyclonal Goat anti-AAT) to 5 μg/mL (1:200) in PBS (no BSA). • 2. Dispense 25 μL of diluted capture antibody into all wells of MSD 384-well High Bind plate using the Multidrop equipped with a standard cassette. • 3. Incubate overnight at 4° C. Prepare Blocker A (BSA) Solutions • 1. Prepare solution of 5% MSD Blocker A (BSA) following the manufacturer's instructions. • 2. Further dilute the 5% MSD Blocker A in PBS to 1% (Blocker A) as needed. Day 3: Run MSD Assay
Block Plates • 1. Wash plate 1× with 50 μL Wash buffer (PBS+0.5% Tween 20), and adds 35 μL 5% Block A buffer to block non-specific binding on washer dispenser • 2. Rotate plates on shaker for 1 hour at 600 rpm
Prepare M-AAT Standards • 1. Dilute M-AAT stock to 1.6 μg/mL in 1% BSA Blocker A (Stock in −70° C.); then prepare 12×1:2 serial dilutions in 1% Blocker A • 2. The top starting final concentration on MSD plate is 320 ng/mL. These dilutions correspond to a final concentration of 320, 160, 80, 40, 20, 10, 5, 2.5, 1.25, 0.625, 0.312, 0.156 ng/mL.
Dilution Plate • 1. Add 80 μL of 1% Assay buffer to all wells except columns 1/24 (standards) with Multidrop Combi • 2. Add diluted standards to columns 1 and 24 • 3. Centrifuge dilution plates 1200 rpm briefly
Cell Plate • 1. Aspirate columns which will have the standards from the cell plates in the hood using 16-pin aspirator
Prepare Human Neutrophil Elastase (hNE) • 1. Prepare 1 μg/mL Human Neutrophil Elastase by diluting in 1% Blocker A. • a. Small 100 μg vial—add 1 mL PBS (100 μg/mL) • i. This can then be diluted 1:100 in 1% Assay Buffer for a final 1 μg/mL concentration
MSD—Add hNE (20 μL/well) • 1. After the MSD plate has blocked for at least 1 hour, wash plate 1× with 50 μL Wash buffer (PBS+0.5% Tween 20) and then add 20 μL hNE to each well
Bravo—Cell Plate—Dilution Plate—MSD Plate
Using the Bravo aspirate 10 μL from the cell plate, transfer to the dilution plate (9-fold dilution)
• 1. Mix 25 μL 3×, then aspirate 5 μL, transfer to MSD plate (5-fold dilution) • 2. Mix 10 μL 3×. Total dilution is 45 fold. • 3. Shake plates at 600 rpm for 1.5 hours
Add Functional detection hNE antibody • 1. Wash plate 1× with wash buffer • 2. […]

T1 sequence (P01009 25-418 E366K): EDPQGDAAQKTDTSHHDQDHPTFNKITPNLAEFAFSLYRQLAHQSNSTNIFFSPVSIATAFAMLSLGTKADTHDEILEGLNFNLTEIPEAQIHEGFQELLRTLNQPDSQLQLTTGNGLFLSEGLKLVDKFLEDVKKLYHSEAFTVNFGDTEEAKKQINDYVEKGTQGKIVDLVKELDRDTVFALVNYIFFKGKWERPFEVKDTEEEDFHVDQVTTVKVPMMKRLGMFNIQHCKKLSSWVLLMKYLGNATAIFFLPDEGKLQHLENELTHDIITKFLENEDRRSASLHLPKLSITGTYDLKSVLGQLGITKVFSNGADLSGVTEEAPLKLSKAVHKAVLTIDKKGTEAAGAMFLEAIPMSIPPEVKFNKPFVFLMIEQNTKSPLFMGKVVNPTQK

| EC50 | Structure (SMILES) |
| --- | --- |
| > 3000 nM | CC1(C(=O)O)CC(c2c(C3CCOCC3)n(-c3ccc(F)c(F)c3)c3cc4cn[nH]c4cc23)C1 (single isomer, unassigned) [Compound 69] |
| < 1160 nM | CC1(C(=O)O)CC(c2c(C3CCOCC3)n(-c3ccc(F)c(F)c3)c3cc4cn[nH]c4cc23)C1 (single isomer, unassigned) [Compound 70] |
| > 3000 nM | O=C(O)[C@H]1C[C@H](Cc2c(C3CCOCC3)n(-c3ccc(F)c(F)c3)c3cc4cn[nH]c4cc23)C1 (single isomer, unassigned) [Compound 71] |
| 1160 to 3000 nM | O=C(O)[C@H]1C[C@@H](Cc2c(C3CCOCC3)n(-c3ccc(F)c(F)c3)c3cc4cn[nH]c4cc23)C1 (single isomer, unassigned) [Compound 72] |
| < 1160 nM | O=C(O)[C@H]1CC[C@@H](Cc2c(C3CCOCC3)n(-c3ccc(F)c(F)c3)c3cc4cn[nH]c4cc23)CC1 (single isomer, unassigned) [Compound 73] |
| 1160 to 3000 nM | O=C(O)[C@H]1CC[C@H](Cc2c(C3CCOCC3)n(-c3ccc(F)c(F)c3)c3cc4cn[nH]c4cc23)CC1 (single isomer, unassigned) [Compound 74] |

Further lines, the molecule ahead of its results:

| Structure (SMILES) | EC50 |
| --- | --- |
| Cc1cc(-n2c(C(C)C)c(CC(C)C(=O)O)c3cc4[nH]ncc4cc32)ccc1F (single isomer, unassigned) [Compound 20] | < 1160 nM |
| Cc1cc(-n2c(C(C)C)c(CC(C)C(=O)O)c3cc4[nH]ncc4cc32)ccc1F (single isomer, unassigned) [Compound 21] | < 1160 nM |
| Cc1cc(-n2c(C(C)C)c(C3CC4(CC(C(=O)O)C4)C3)c3cc4[nH]ncc4cc32)ccc1F (single isomer, unassigned) [Compound 25] | < 1160 nM |
| Cc1cc(-n2c(C(C)C)c(C3CC4(CC(C(=O)O)C4)C3)c3cc4[nH]ncc4cc32)ccc1F (single isomer, unassigned) [Compound 26] | < 1160 nM |
| Cc1cc(-n2c(C(C)C)c(C(C)CC(=O)O)c3cc4[nH]ncc4cc32)ccc1F (single isomer, unassigned) [Compound 27] | < 1160 nM |
| Cc1cc(-n2c(C(C)C)c(C(C)CC(=O)O)c3cc4[nH]ncc4cc32)ccc1F (single isomer, unassigned) [Compound 28] | < 1160 nM |
| CC(C)c1c(C2CC3(CC(C(=O)O)C3)C2)c2cc3[nH]ncc3cc2n1-c1ccc(F)cc1 (single isomer, unassigned) [Compound 35, 6-[5-(4-fluorophenyl)-6-isopropyl-1H-pyrrolo[2,3-f]indazol-7-yl]spiro[3.3]heptane-2-carboxylic acid] | < 1160 nM |
| CC(C)c1c(C2CC3(CC(C(=O)O)C3)C2)c2cc3[nH]ncc3cc2n1-c1ccc(F)cc1 (single isomer, unassigned) [Compound 36, 6-[5-(4-fluorophenyl)-6-isopropyl-1H-pyrrolo[2,3-f]indazol-7-yl]spiro[3.3]heptane-2-carboxylic acid] | < 1160 nM |
| Cc1cc(-n2c(C(C)C)c(C3CC4(CC(C(=O)O)C4)C3)c3cc4[nH]nc(C)c4cc32)ccc1F (single isomer, unassigned) [Compound 57, 6-[5-(4-fluoro-3-methyl-phenyl)-6-isopropyl-3-methyl-1H-pyrrolo[2,3-f]indazol-7-yl]spiro[3.3]heptane-2-carboxylic acid] | 1160 to 3000 nM |
| Cc1cc(-n2c(C(C)C)c(C3CC4(CC(C(=O)O)C4)C3)c3cc4[nH]nc(C)c4cc32)ccc1F (single isomer, unassigned) [Compound 58, 6-[5-(4-fluoro-3-methyl-phenyl)-6-isopropyl-3-methyl-1H-pyrrolo[2,3-f]indazol-7-yl]spiro[3.3]heptane-2-carboxylic acid] | 1160 to 3000 nM |
| O=C(O)C1CC2(C1)CC(c1c(C3CCOCC3)n(-c3ccc(F)c(F)c3)c3cc4cn[nH]c4cc13)C2 (single isomer, unassigned) [Compound 67] | < 1160 nM |
| O=C(O)C1CC2(C1)CC(c1c(C3CCOCC3)n(-c3ccc(F)c(F)c3)c3cc4cn[nH]c4cc13)C2 (single isomer, unassigned) [Compound 68] | < 1160 nM |
